Measured values reported in article PMC11605291 (Frontiers in Pharmacology, 2024).

How the values were obtained:
[1] = Safety and tolerability evaluation; conditions: for serious adverse events or deaths: 6 healthy Chinese males
Protocol: The safety of the subjects was assessed by adverse events, laboratory test results, vital signs, and 12-lead electrocardiogram (ECG). AEs were recorded from the time of administration and serious adverse events (SAE) were recorded from the time that subjects signed the informed consent. Subjects with elevated aspartate aminotransferase (AST) and/or alanine aminotransferase (ALT) levels (≥3 × ULN) combined with elevated serum total bilirubin (≥2 × ULN) or clinical jaundice in the same blood sample should be recorded as a specific adverse event.

[2] = Metabolite profiling and identification in plasma, urine and feces (LC/RAM/MS); format: in vivo, human; set-up: key to Plasma %AUC (percentage of total plasma radioactivity) / Urine %Dose / Feces %Dose: +: No radioactive peaks were detected, but mass spectrometry peaks were detected; ND: not detectable; conditions: for Urine %Dose: pooled 0–72 h urine, total in urine 37.15%
Protocol: The plasma samples from six subjects were pooled individually according to the AUC method to obtain 6 plasma samples of 0–72 h ([Hop et al., 1998]). A portion of the proportionally mixed plasma sample was taken and added to a certain volume of acetonitrile (3×, v/v) for extraction, vortexed for 1 min, shaken for 10 min and then stored in a refrigerator at 4°C for 30 min, the mixture was removed and vortexed for 2 min and then centrifuged for 10 min at 10,000×g and 4°C. The residue from the extraction was firstly ultrasonically suspended using 1 mL of ultrapure water and then extracted using methanol (2×, v/v) and repeated twice. The organic solvent extracts were combined, blown dry with nitrogen and reconstituted with acetonitrile: ultrapure water (1:1), the reconstituted solution was centrifuged at 4°C and 10,000×g for 10 min, and the supernatant was used for radio-metabolite profiling.
The radioactivity in the organic solvent extract and the reconstitution solution was determined by LSC. The solid residue after extraction was dissolved by heating with 1N KOH solution and added to the scintillation solution to determine its radioactivity. All the final data were used to examine the recovery of radioactivity during plasma extraction.
The urine samples from the six subjects were mixed in the same volume percentage to obtain six 0–72 h urine samples. A portion of the proportionally mixed urine sample was centrifuged for 10 min at approximately 10,000×g and 4°C. Two samples were taken before and after centrifugation, and the radioactivity of the samples was determined by LSC, and the data obtained were used to calculate the recovery of radioactivity during the centrifugation process. A portion of the supernatant after centrifugation was used directly for radio-metabolite profiling.
The fecal samples from the six subjects were mixed with the same weight percentage to obtain 6 fecal homogenate samples of 0–168 h. A portion of the proportionally mixed fecal homogenate samples was taken and extracted by adding a volume of acetonitrile (3×, v/v), vortexed for 5 min at room temperature, sonicated for 5 min and then centrifuged for 10 min at 10,000 × g and 4°C. The residue of the extracted material was firstly sonicated and mixed using about 1 mL of ultrapure water before extracted using methanol (2×, v/v). The process was repeated twice and the organic extracts were combined, blown dry using nitrogen and then reconstituted with dimethyl sulfoxide: acetonitrile: ultrapure water (3:2:5), the reconstituted solution was centrifuged at 10,000×g at 4°C for 10 min and the supernatant was used for radio-metabolite profiling. […] LSC was used to determine the intensity of radioactivity contained in the organic solvent extract and in the reconstituted solution. The solid residue after extraction is fully combusted by an oxidative combustor, and the [^14C]carbon dioxide produced by combustion of the sample is captured with a scintillation solution to determine its radioactivity intensity. All final data were used to examine the extraction and recovery of radioactivity from fecal homogenate samples.
A high performance liquid chromatograph coupled with an online isotope detector and mass spectrometry (LC/RAM/MS) was used for the identification of radioactive metabolite profiles. The HPLC method consisted of an HPLC system (Shimadzu UFLC-20A-Lite), a chromatographic column (ACE Excel 3 C18, 150 × 4.6 mm id), mobile phase A (0.4% aqueous formic acid, pH = 3.2 adjusted with ammonia) and mobile phase B (acetonitrile) at a flow rate of 0.7 mL/min. The gradient was 0% B for the 0–5 min, 20% B from 15 min to 30 min, 22% B from 32 to 40 min, and 70%–100% B from 60 to 72 min. The column temperature was 28°C. […]

SMILES: C[C@H](Nc1ncnc(N)c1C#N)c1cc2ncc(Cl)n2nc1-c1ccccc1 [Amdizalisib]
- subjects reporting TEAEs ([1]; 5 of 6 subjects, single oral 30 mg/100 µCi): 83.3%
- serious adverse events or deaths [1]: No serious adverse events or drug-related deaths occured
- serious adverse events or deaths ([1]; listed as amdizalisib): No subjects reported serious adverse events or adverse events leading to death
- severity of TEAEs ([1]; all TEAEs, considered study drug related): grade 1
- subjects reporting diarrhea as TEAE ([1]; four subjects): 66.7%
- number of TEAEs reported ([1]; throughout the study, 6 subjects): 11
- subjects reporting abnormal laboratory test results ([1]; two subjects, shortened ECG PR, elevated low-density lipoprotein, positive urine white blood cells): 33.3%
- F: %Dose in feces (Figure 4) [2]: 1.21%
- P: %AUC in plasma (Figure 4) [2]: 51.45%
- U: %Dose in urine (Figure 4) [2]: +
- Plasma %AUC (percentage of total plasma radioactivity) ([2]; AUC-pooled 0–72 h plasma, mean of 6 subjects): 51.45 %AUC
- Urine %Dose ([2]; mean of 6 subjects): +
- Urine %Dose ([2]; mean of 6 subjects, listed as parent drug): detected only by mass spectrometry
- Feces %Dose ([2]; pooled 0–168 h feces, mean of 6 subjects, total in feces 62.08%): 1.21 %Dose
- %AUC in AUC-pooled plasma ([2]; subject 01001): 57.45 %AUC
- %Dose in pooled feces ([2]; subject 01001): 0.77 %Dose
- %AUC in AUC-pooled plasma ([2]; subject 01002): 65.57 %AUC
- %Dose in pooled feces ([2]; subject 01002): 0.25 %Dose
- %AUC in AUC-pooled plasma ([2]; subject 01003): 56.65 %AUC
- %Dose in pooled feces ([2]; subject 01003): 1.93 %Dose
- %AUC in AUC-pooled plasma ([2]; subject 01004): 59.14 %AUC
- %Dose in pooled feces ([2]; subject 01004): 1.52 %Dose
- %AUC in AUC-pooled plasma ([2]; subject 01005): 54.59 %AUC
- %Dose in pooled feces ([2]; subject 01005): 2.32 %Dose
- %AUC in AUC-pooled plasma ([2]; subject 01006): 15.32 %AUC
- %Dose in pooled feces ([2]; subject 01006): 0.48 %Dose
